Where two headings read alike, the source gives them in different places.
What was measured:
[1] = system: non-expressing oocytes; assay: cells; type: cell-based, Xenopus laevis; details: Xenopus laevis, total [3H]CQ transport; for inhibition at 500 µM: [test solute] = 0.5 mM; for inhibition at 1000 µM: [test solute] = 1 mM; for inhibition at 2000 µM: [test solute] = 2 mM
Method in brief: (§1)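 Transport runs from the acidic bath into the cytosol, analogous to PfCRT-mediated efflux out of the vacuole. Non-expressing oocytes act as background.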

[2] = target: T1, PfCRT^Ecu1110 (Plasmodium falciparum, UniProt Q9N623, A220S/I356L/K76T/N326D); assay: cell-based; type: cell-based; details: […]
T1 sequence (Q9N623 whole entry A220S/I356L/K76T/N326D): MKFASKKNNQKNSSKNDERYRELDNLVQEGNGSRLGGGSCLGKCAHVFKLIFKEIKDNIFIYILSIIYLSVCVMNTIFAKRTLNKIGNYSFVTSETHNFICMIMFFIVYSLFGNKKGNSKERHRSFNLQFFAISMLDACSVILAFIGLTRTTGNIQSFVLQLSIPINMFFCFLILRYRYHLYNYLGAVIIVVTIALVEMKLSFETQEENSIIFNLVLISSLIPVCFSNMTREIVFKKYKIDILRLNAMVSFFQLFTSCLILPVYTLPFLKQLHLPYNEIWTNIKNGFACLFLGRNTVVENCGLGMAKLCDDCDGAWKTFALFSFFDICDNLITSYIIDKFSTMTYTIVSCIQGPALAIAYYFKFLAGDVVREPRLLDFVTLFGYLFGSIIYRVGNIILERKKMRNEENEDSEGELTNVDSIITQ
Method in brief: (§2)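 Oocytes (ten per treatment, ≥4 independent frogs/days) were preloaded by injecting VF-6 in 25 nL ND96 at pH 5.0, 5.5, 6.0 or 7.0, or Na^+-free choline buffer, then uptake run 1.5 h, 27.5 °C, ND96 pH 5.5 by default. Internal concentrations assumed ~400 nL oocyte volume.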

[3] = target: T2, PfCRT^Dd2 (Plasmodium falciparum, UniProt Q9N623, A220S/I356T/K76T/M74I/N326S/N75E/Q271E/R371I); assay: cell-based; type: cell-based; details: […]; for activity at 45000 µM: [test solute]i = 45 mM (30 mM for some solutes due to solubility)
T2 sequence (Q9N623 whole entry A220S/I356T/K76T/M74I/N326S/N75E/Q271E/R371I): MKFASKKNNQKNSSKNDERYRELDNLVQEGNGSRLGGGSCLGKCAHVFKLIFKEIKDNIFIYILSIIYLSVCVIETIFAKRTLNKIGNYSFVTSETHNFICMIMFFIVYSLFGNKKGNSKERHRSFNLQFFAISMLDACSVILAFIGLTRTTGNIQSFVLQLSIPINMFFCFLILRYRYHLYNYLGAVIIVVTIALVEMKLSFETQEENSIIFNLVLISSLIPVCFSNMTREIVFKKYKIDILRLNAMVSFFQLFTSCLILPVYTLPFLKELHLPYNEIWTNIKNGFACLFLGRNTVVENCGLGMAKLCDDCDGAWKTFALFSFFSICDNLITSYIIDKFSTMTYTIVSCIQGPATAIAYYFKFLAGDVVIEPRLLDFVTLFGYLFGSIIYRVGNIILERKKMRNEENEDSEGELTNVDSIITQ
Method in brief: as §2

[4] = target: T3, PfNT1 (Plasmodium falciparum, UniProt Q8IDM6); assay: cell-based; type: cell-based; details: […], read-out: Uptake of [3H]CQ (% PfCRTDd2 control), trans-stimulation, PfNT1; SEM
T3 construct: expressed in transfected cells; host or cells: Xenopus laevis oocytes (stage V-VI), cRNA-injected
T3 sequence (Q8IDM6 whole entry): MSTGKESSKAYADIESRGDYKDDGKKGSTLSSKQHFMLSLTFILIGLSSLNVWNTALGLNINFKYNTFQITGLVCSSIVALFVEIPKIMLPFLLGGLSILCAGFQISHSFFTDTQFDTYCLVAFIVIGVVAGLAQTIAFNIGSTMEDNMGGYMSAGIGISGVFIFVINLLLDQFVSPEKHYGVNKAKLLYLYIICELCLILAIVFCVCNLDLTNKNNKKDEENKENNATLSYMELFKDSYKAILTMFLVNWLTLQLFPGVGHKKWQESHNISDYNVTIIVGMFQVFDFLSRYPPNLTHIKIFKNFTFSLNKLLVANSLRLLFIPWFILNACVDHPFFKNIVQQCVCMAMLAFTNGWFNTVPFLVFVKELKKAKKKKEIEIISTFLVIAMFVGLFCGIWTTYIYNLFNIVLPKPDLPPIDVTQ
Method in brief: as §2

[5] = target: T4, PfCRT^3D7 (Plasmodium falciparum, UniProt Q8IBZ9); assay: cell-based; type: cell-based
T4 sequence (Q8IBZ9 59-398): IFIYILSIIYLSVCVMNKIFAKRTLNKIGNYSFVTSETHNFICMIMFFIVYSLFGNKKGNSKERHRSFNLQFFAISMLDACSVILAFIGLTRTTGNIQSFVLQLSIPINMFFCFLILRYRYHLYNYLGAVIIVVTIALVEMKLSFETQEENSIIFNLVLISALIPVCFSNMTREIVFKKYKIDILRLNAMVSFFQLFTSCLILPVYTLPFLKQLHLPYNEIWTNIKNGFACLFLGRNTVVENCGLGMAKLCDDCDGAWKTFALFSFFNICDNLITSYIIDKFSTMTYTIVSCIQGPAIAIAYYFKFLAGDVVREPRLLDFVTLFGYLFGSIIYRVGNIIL
Method in brief: as §2

[6] = system: PfCRT; assay: Potential co-substrates tested for influx of VF-6 via PfCRT into the oocyte; type: cell-based, Plasmodium falciparum; parameters: key: X: Compounds that have been tested as potential co-substrates but are not required for influx of VF-6 via PfCRT into the oocyte
[7] = target: T4, PfCRT^3D7; assay: cell-based; type: cell-based; details: total [3H]CQ transport; for inhibition at 500 µM: [test solute] = 0.5 mM; for inhibition at 1000 µM: [test solute] = 1 mM; for inhibition at 2000 µM: [test solute] = 2 mM
Method in brief: as §1

[8] = system: PfCRT; assay: Test of solutes as potential co-substrates for influx of VF-6 via PfCRT into the oocyte; type: cell-based, Plasmodium falciparum; parameters: key: X: Compounds that have been tested as potential co-substrates but are not required for influx of VF-6 via PfCRT into the oocyte; details: X = tested
[9] = target: T1, PfCRT^Ecu1110; assay: [3H]CQ uptake into Xenopus oocytes, cis-inhibition by unlabelled solute; type: cell-based
Method in brief: as §1

[10] = target: T2, PfCRT^Dd2; assay: as above; type: cell-based
Method in brief: as §1

[11] = system: non-expressing oocytes; type: cell-based, Xenopus laevis; details: total [3H]CQ transport; for Uptake of [3H]CQ (% non-expressing oocyte control), trans-stimulation: non-expressing oocytes, normalised to the oocyte type control; for Uptake of [3H]CQ (% PfCRTDd2 control), trans-stimulation, non-expressing oocytes: mean ± SEM, SEM
Method in brief: as §2

[12] = Oocyte, mean ± SEM, SEM, read-out: Uptake of [3H]CQ (% PfCRTDd2 control), cis-inhibition, non-expressing oocytes
[13] = non-expressing oocytes, normalised to the oocyte type control, read-out: Uptake of [3H]CQ (% non-expressing oocyte control), cis-inhibition
[14] = PfCRT3D7 oocytes, normalised to the oocyte type control, read-out: Uptake of [3H]CQ (% PfCRT3D7 control), cis-inhibition
[15] = mean ± SEM, SEM, read-out: Uptake of [3H]CQ (% PfCRTDd2 control), cis-inhibition, PfCRT3D7
[16] = read-out: PfCRT-mediated [3H]CQ transport, cis-inhibition (% PfCRTEcu1110 control)
[17] = read-out: Uptake of [3H]CQ (% PfCRTDd2 control), cis-inhibition, PfCRTEcu1110, SEM
[18] = read-out: Uptake of [3H]CQ (% PfCRTEcu1110 control), cis-inhibition
[19] = read-out: [3H]CQ transport (% PfCRTEcu1110 control), cis-inhibition, PfCRTEcu1110, SEM
[20] = read-out: PfCRT-mediated [3H]CQ transport, cis-inhibition (% PfCRTDd2 control)
[21] = read-out: Uptake of [3H]CQ (% PfCRTDd2 control), cis-inhibition
[22] = read-out: Uptake of [3H]CQ (% PfCRTDd2 control), cis-inhibition, PfCRTDd2, SEM
[23] = read-out: [3H]CQ transport (% PfCRTDd2 control), cis-inhibition, PfCRTDd2, SEM

N[C@@H](CCC(=O)O)C(=O)O [L-glutamic acid]
inhibition at 500 µM [1, 12]: 2.5 ± 0.05%
inhibition at 1000 µM [1, 12]: 2.7 ± 0.07%
inhibition at 2000 µM [1, 12]: 3.8 ± 0.07%
inhibition at 500 µM [1, 13]: 98 ± 4.7%
inhibition at 1000 µM [1, 13]: 98 ± 3.7%
inhibition at 2000 µM [1, 13]: 98 ± 5.2%
activity at 5000 µM ([2]; pH 5.5, read-out: PfCRT-mediated [3H]CQ transport, trans-stimulation (% PfCRTEcu1110 control), [test solute]i = 5 mM (intracellular), PfCRTEcu1110 oocytes, normalised to oocyte type control): 97 ± 2.4%
activity at 5000 µM ([2]; pH 5.5, read-out: Uptake of [3H]CQ (% PfCRTEcu1110 control), trans-stimulation, PfCRTEcu1110 oocytes, [test solute]i = 5 mM, total [3H]CQ transport, normalised to the oocyte type control): 99 ± 3.6%
activity at 45000 µM ([2]; pH 5.5, read-out: Uptake of [3H]CQ (% PfCRTEcu1110 control), trans-stimulation, PfCRTEcu1110 oocytes, [test solute]i = 45 mM (30 mM for some solutes due to solubility), total [3H]CQ transport, normalised to the oocyte type control): 100 ± 3.7%
activity at 5000 µM ([2]; read-out: Uptake of [3H]CQ (% PfCRTDd2 control), trans-stimulation, PfCRTEcu1110, total [3H]CQ transport, [test solute]i = 5 mM (intracellular), mean ± SEM, SEM): 35 ± 1.5%
activity at 45000 µM ([2]; read-out: Uptake of [3H]CQ (% PfCRTDd2 control), trans-stimulation, PfCRTEcu1110, total [3H]CQ transport, [test solute]i = 45 mM (intracellular; 30 mM for some solutes due to solubility), mean ± SEM, SEM): 36 ± 2.1%
activity at 5000 µM ([3]; pH 5.5, read-out: PfCRT-mediated [3H]CQ transport, trans-stimulation (% PfCRTDd2 control), [test solute]i = 5 mM (intracellular), PfCRTDd2 oocytes, normalised to oocyte type control): 99 ± 3.5%
activity at 5000 µM ([3]; pH 5.5, read-out: Uptake of [3H]CQ (% PfCRTDd2 control), trans-stimulation, PfCRTDd2, total [3H]CQ transport, [test solute]i = 5 mM (intracellular), mean ± SEM, SEM): 101 ± 2.2%
activity at 5000 µM ([3]; pH 5.5, read-out: Uptake of [3H]CQ (% PfCRTDd2 control), trans-stimulation, PfCRTDd2 oocytes, [test solute]i = 5 mM, total [3H]CQ transport, normalised to the oocyte type control): 101 ± 2.2%
activity at 45000 µM ([3]; pH 5.5, read-out: Uptake of [3H]CQ (% PfCRTDd2 control), trans-stimulation, PfCRTDd2 oocytes, total [3H]CQ transport, normalised to the oocyte type control): 96 ± 2.8%
activity at 5000 µM ([3]; pH 5.5, read-out: [3H]CQ transport (% PfCRTDd2 control), trans-stimulation, PfCRTDd2, trans-stimulation, [test solute]i = 5 mM (injected), PfCRT-mediated component (background subtracted), mean ± SEM, SEM): 99 ± 3.5%
activity at 45000 µM ([3]; pH 5.5, read-out: [3H]CQ transport (% PfCRTDd2 control), trans-stimulation, PfCRTDd2, trans-stimulation, PfCRT-mediated component (background subtracted), mean ± SEM, SEM): 94 ± 4.2%
activity at 5000 µM [4]: 2.7 ± 0.06%
activity at 5000 µM ([5]; PfCRT3D7 oocytes, [test solute]i = 5 mM, total [3H]CQ transport, normalised to the oocyte type control, read-out: Uptake of [3H]CQ (% PfCRT3D7 control), trans-stimulation): 101 ± 2.6%
[3H]CQ transport (% PfCRT3D7 control), trans-stimulation, PfCRT3D7 ([5]; SEM): 0.4 ± 0.02 % PfCRT3D7 control
activity at 5000 µM ([5]; [test solute]i = 5 mM (intracellular), PfCRT3D7 oocytes, normalised to oocyte type control, read-out: PfCRT-mediated [3H]CQ transport, trans-stimulation (% PfCRT3D7 control)): 99 ± 3.9%
activity at 45000 µM ([5]; SEM, read-out: Uptake of [3H]CQ (% PfCRTDd2 control), trans-stimulation, PfCRT3D7): 3.3 ± 0.02%
activity at 45000 µM ([5]; read-out: PfCRT-mediated [3H]CQ transport, trans-stimulation (% PfCRT3D7 control)): 97 ± 1.8%
activity at 45000 µM ([5]; read-out: Uptake of [3H]CQ (% PfCRT3D7 control), trans-stimulation): 99 ± 2.6%
activity at 5000 µM ([5]; total [3H]CQ transport, [test solute]i = 5 mM (intracellular), mean ± SEM, SEM, read-out: Uptake of [3H]CQ (% PfCRTDd2 control), trans-stimulation, PfCRT3D7): 3.4 ± 0.02%
Tested as potential co-substrate but not required for influx of VF-6 via PfCRT into the oocyte [6]: X
inhibition at 500 µM [7, 14]: 100 ± 3.8%
inhibition at 1000 µM [7, 14]: 101 ± 5.2%
inhibition at 2000 µM [7, 14]: 98 ± 5.7%
inhibition at 500 µM [7, 15]: 2.2 ± 0.01%
inhibition at 1000 µM [7, 15]: 2.8 ± 0.03%
inhibition at 2000 µM [7, 15]: 3.2 ± 0.08%
Tested as potential co-substrate but not required for influx of VF-6 via PfCRT into the oocyte [8]: X
inhibition at 500 µM [9, 16]: 92 ± 4.5%
inhibition at 1000 µM [9, 16]: 93 ± 5.1%
inhibition at 500 µM [9, 17]: 31 ± 1.5%
inhibition at 1000 µM [9, 17]: 31 ± 2%
inhibition at 2000 µM [9, 17]: 32 ± 1.9%
inhibition at 500 µM [9, 18]: 94 ± 3.5%
inhibition at 1000 µM [9, 18]: 96 ± 2.4%
inhibition at 2000 µM [9, 18]: 99 ± 4.6%
inhibition at 500 µM [9, 19]: 28 ± 0.8%
inhibition at 1000 µM [9, 19]: 28 ± 0.6%
inhibition at 2000 µM [9, 19]: 29 ± 0.4%
inhibition at 500 µM [10, 20]: 96 ± 4.7%
inhibition at 1000 µM [10, 20]: 94 ± 4.2%
inhibition at 2000 µM [10, 20]: 94 ± 2.9%
inhibition at 1000 µM [10, 21]: 96 ± 2.5%
inhibition at 2000 µM [10, 21]: 96 ± 3.3%
inhibition at 500 µM [10, 22]: 98 ± 2.7%
inhibition at 1000 µM [10, 22]: 96 ± 2.5%
inhibition at 2000 µM [10, 22]: 96 ± 3.3%
inhibition at 500 µM [10, 23]: 96 ± 4.7%
inhibition at 1000 µM [10, 23]: 94 ± 4.2%
inhibition at 2000 µM [10, 23]: 94 ± 2.9%
Uptake of [3H]CQ (% non-expressing oocyte control), trans-stimulation ([11]; [test solute]i = 5 mM): 99 ± 2.1 % non-expressing oocyte control
Uptake of [3H]CQ (% non-expressing oocyte control), trans-stimulation ([11]; [test solute]i = 45 mM (30 mM for some solutes due to solubility)): 99 ± 3.3 % non-expressing oocyte control
Uptake of [3H]CQ (% PfCRTDd2 control), trans-stimulation, non-expressing oocytes ([11]; [test solute]i = 5 mM (intracellular)): 3.1 ± 0.08 % PfCRTDd2 control
Uptake of [3H]CQ (% PfCRTDd2 control), trans-stimulation, non-expressing oocytes ([11]; [test solute]i = 45 mM (intracellular; 30 mM for some solutes due to solubility)): 2.9 ± 0.05 % PfCRTDd2 control

From publication PMC7413254 (Nature Communications, 2020)
